Test results as given in patent publication US5739121A, “Fluorocyclosaccharide drug delivery systems” (University of Alberta, priority 1993, dated 1998).

Columns and labels:
[1] = Biodistribution of 6-F3 βCD at 15 minutes after a single intravenous dose; format: in vivo, BALB/C mouse; conditions: mouse
Description: (§1) A Bruker AM-300 (7.05 Tesla, 282.39 Mhz) and a Bruker CXP-100 (2.35 Telsa, 94.26 Mhz, 40 cm. bore) spectrometer were used for ^19 F NMR spectroscopy. The CXP-100 spectrometer was used with a 20 mm diameter, three turn horizontal coil. The biodistribution and excretion study of Example 4 was performed on the CXP-100 spectrometer, while ^1 H, ^13 C and ^19 F NMR spectra for synthesized compounds, blood, urine and extracts of liver were obtained using the Bruker AM-300 instrument. The ^19 F NMR were acquired over a spectral width of 70.0 ppm (between +60.0 and -10.0 ppm). The number of scans varied from 2.5 k to 45 k scans depending on the size of biological samples. An aqueous solution of chromium acetate (90 μL; 0.1M) was used as a relaxation agent to enhance the S/N ratio. Exponential line broadening of 0-40 Hz was imposed on the data prior to Fourier transformation. An aqueous solution of potassium fluoride (5 μL; 0.2M) was used as an internal standard during acquisition of ^19 F NMR spectra while ^1 H and ^13 C NMR spectra were locked on deuterium. D2 O was used as a solvent for samples of blood, urine and liver extract) which appeared at δ4.68 ppm (^1 H NMR spectra) with respect to tetramethylsilane. The resolution limits for ^1 H, ^13 C and ^19 F were observed between 0.5-1.1, 2.0-3.0 and 1.3-20.0 Hz, respectively. The chemical shifts are reported in δ ppm.
6-F3 βCD (90 mg/ml in water) was administered to a BALB/C mouse by intravenous injection through the tail vein, at a dose of 13.5 mg 6-F3 βCD per mouse. The mouse was placed in a beaker layered with filter paper to absorb the urine excreted during the experiment. 15 minutes after administration of the drug complex, blood was collected by cardiac puncture, the mouse was sacrificed by euthanasia in dry ice and the desired organs were collected by dissection. All samples were immediately frozen and held frozen until NMR studies.

[2] = Metabolic degradation after intravenous injection of 6-F3 βCD; format: in vivo, BALB/C mouse; conditions: mouse, i.v. injection, over the first fifteen minutes; 15 min
Description: as §1, with “ppm. […]” for “ppm.”

SMILES: O[C@@H]1[C@@H](O)[C@H]2O[C@H]3[C@H](O)[C@@H](O)[C@@H](O[C@H]4[C@H](O)[C@@H](O)[C@@H](O[C@H]5[C@H](O)[C@@H](O)[C@@H](O[C@H]6[C@H](O)[C@@H](O)[C@@H](O[C@H]7[C@H](O)[C@@H](O)[C@@H](O[C@H]8[C@H](O)[C@@H](O)[C@@H](O[C@@H]1[C@@H](COCC(F)(F)F)O2)O[C@@H]8COCC(F)(F)F)O[C@@H]7COCC(F)(F)F)O[C@@H]6COCC(F)(F)F)O[C@@H]5COCC(F)(F)F)O[C@@H]4COCC(F)(F)F)O[C@@H]3COCC(F)(F)F [6-F3 βCD, Heptakis [6.0-(2,2,2-trifluoroethyl)]-β-cyclodextrin]
- % Dose in tail ([1]; single i.v. 13.5 mg per mouse (tail vein), tail): 2.14 % Dose
- % Dose in blood ([1]; single i.v. 13.5 mg per mouse, blood): 62.59 % Dose
- % Dose in intestine ([1]; single i.v. 13.5 mg per mouse, intestine): 0.72 % Dose
- % Dose in kidney ([1]; single i.v. 13.5 mg per mouse, kidney): 1.87 % Dose
- % Dose in liver ([1]; single i.v. 13.5 mg per mouse, liver): 4.09 % Dose
- % Dose in urine ([1]; single i.v. 13.5 mg per mouse, urine): 40.96 % Dose
- metabolic degradation, share of the administered dose [2]: less than 5%
